{"source": "patent US20090093460A1", "about": "“Compositions” (AstraZeneca AB, priority 2003, published 2009)", "key": {"mice [1]": {"tested_on": "mice", "experiment": "Standard apomorphine climbing mouse assay", "assay_type": "in vivo", "conditions": "p.o.", "description": "The methods and procedures used can be found in Warawa et al., J. Med. Chem., 2001, 44 (3), 372-389, and are incorporated herein by reference."}, "[2]": {"molecular_target": "T1, brain serotonin 5-HT2 receptor (Homo sapiens, UniProt P28223)", "T1 construct": "from tissue; host or cells: brain", "T1 sequence (P28223 whole entry)": "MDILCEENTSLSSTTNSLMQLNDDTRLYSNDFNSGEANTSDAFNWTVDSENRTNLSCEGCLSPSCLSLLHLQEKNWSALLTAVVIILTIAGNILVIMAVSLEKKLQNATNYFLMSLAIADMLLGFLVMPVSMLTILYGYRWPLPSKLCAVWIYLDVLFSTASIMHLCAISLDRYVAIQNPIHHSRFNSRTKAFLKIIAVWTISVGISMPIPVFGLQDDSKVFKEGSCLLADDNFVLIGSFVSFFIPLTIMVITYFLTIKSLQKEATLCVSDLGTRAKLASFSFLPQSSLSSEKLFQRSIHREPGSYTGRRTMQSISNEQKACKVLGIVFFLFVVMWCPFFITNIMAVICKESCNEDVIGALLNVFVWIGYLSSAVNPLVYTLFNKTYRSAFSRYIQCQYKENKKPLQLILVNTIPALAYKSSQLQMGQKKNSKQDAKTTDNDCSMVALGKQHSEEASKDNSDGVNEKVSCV", "experiment": "In vitro binding, brain serotonin 5-HT2 receptor", "conditions": "dihydrochloride salt; read-out: binding affinity K1"}, "dopamine D1 receptor": {"molecular_target": "T2, dopamine D1 receptor (Homo sapiens, UniProt P21728)", "T2 construct": "from tissue; host or cells: brain", "T2 sequence (P21728 whole entry)": "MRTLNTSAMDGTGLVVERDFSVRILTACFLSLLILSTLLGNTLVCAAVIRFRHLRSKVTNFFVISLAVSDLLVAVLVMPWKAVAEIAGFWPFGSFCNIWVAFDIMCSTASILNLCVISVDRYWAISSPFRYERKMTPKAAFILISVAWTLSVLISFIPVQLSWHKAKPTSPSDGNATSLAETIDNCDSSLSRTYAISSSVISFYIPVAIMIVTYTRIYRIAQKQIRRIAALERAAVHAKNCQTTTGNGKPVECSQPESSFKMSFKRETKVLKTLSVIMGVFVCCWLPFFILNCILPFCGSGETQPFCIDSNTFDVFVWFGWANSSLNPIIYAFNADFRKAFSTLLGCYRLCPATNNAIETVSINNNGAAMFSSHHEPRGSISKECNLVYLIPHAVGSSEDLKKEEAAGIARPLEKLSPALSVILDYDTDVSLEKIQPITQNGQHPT", "experiment": "In vitro binding, dopamine D1 receptor", "conditions": "dihydrochloride salt; read-out: binding affinity K1"}, "dopamine D2 receptor": {"molecular_target": "dopamine D2 receptor (Homo sapiens, UniProt P14416)", "sequence (P14416 whole entry)": "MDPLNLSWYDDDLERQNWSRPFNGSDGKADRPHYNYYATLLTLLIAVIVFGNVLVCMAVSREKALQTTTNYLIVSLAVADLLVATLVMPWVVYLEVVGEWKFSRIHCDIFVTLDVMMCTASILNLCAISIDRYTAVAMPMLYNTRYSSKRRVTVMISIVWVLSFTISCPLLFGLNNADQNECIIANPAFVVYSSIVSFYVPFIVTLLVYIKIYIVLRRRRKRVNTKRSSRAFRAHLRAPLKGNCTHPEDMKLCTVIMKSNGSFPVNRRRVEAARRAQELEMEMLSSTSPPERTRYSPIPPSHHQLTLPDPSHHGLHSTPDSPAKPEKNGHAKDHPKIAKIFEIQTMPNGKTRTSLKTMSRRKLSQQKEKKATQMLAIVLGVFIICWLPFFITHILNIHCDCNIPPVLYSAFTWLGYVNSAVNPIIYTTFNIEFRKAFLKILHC", "experiment": "In vitro binding, dopamine D2 receptor", "conditions": "dihydrochloride salt; read-out: binding affinity K1"}, "mice [3]": {"tested_on": "mice", "experiment": "Mouse forced swim test", "assay_type": "in vivo", "conditions": "5.0, 10.0 and 20.0 mg/kg sc, 15 minutes prior", "procedure": "Methods: Mice were placed in cylinders of water (25.0° C.±1.5° C.) for 6 minutes. The amount of immobility was quantified during the last 4 minutes of each session. The experimental observer was blind to the treatment conditions. […] Imipramine 45.0 mg/kg and citalopram 15.0 mg/kg were measured as the salt and administered ip 60 minutes prior to the behavioural session."}, "mice [4]": {"tested_on": "mice", "experiment": "Tail suspension test", "assay_type": "in vivo, mouse", "conditions": "30 mg/kg p.o., 60 minutes prior", "procedure": "Antidepressant activity of 11-piperazin-1-yldibenzo[b,f][1,4]thiazepine was assessed in mice according to the tail suspension test. As shown in the results below, 11-piperazin-1-yldibenzo[b,f][1,4]thiazepine has antidepressant activity in mice.\nIn a first experiment, mice (n=10/group) were treated with vehicle, 2.0, 5.0, or 10.0 mg/kg of 11-piperazin-1-yldibenzo[b,f][1,4]thiazepine s.c. 15 minutes prior to the test session. Mice were suspended from their tails for 7 minutes. During the last 5 minutes of the test, the duration of immobility was recorded. In a second experiment, mice (n=10/group) were treated with vehicle, 30 mg/kg 11-piperazin-1-yldibenzo[b,f][1,4]thiazepine, or 30 mg/kg fluoxetine p.o. 60 minutes prior to the test session. Mice were suspended from their tails for 7 minutes. During the last 5 minutes of the test, the duration of immobility was recorded."}}}
{"smiles": "Cl.Cl.c1ccc2c(c1)N=C(N1CCNCC1)c1ccccc1S2", "note": "[Example 2, 11-piperazin-1-yldibenzo[b,f][1,4]thiazepine, dihydrochloride salt]", "values": [{"measurement": "in vivo antipsychotic activity", "setting": "mice [1]", "value": "not found to be efficacious"}, {"measurement": "Ki", "setting": "[2]", "value": 27, "unit": "nM"}, {"measurement": "Ki", "setting": "dopamine D1 receptor", "value": 1490, "unit": "nM"}, {"measurement": "Ki", "setting": "dopamine D2 receptor", "value": 234, "unit": "nM"}]}
{"smiles": "OCCOCCN1CCN(C2=Nc3ccccc3Sc3ccccc32)CC1", "note": "[Quetiapine, reference compound]", "values": [{"measurement": "antidepressant effect (immobility)", "setting": "mice [3]", "value": "no effect"}]}
{"smiles": "CNCCC(Oc1ccc(C(F)(F)F)cc1)c1ccccc1", "note": "(stereo not shown) [fluoxetine, reference compound]", "values": [{"measurement": "reduction of immobility, fraction of that of the vehicle control group", "setting": "mice [4]", "value": "more than ½"}, {"measurement": "duration of immobility compared to the vehicle control group", "setting": "mice [4]; p<0.01", "value": "significantly reduced immobility"}]}
